Results as given in patent publication US8865122B2, “Methods and compositions for protein labelling” (Genentech, Inc., priority 2009, dated 2014).
Values belong to the molecule of their own block, whether it stands above or below them.

Assays:
[1] = test system: Hsp90; assay: Hsp90 targeted therapy (17-AAG) treatment response monitored by microPET; format: in vivo, Beige nude XID mice
Procedure: Hsp90 targeted therapy and microPET imaging. Mice were distributed into two groups (n=4) according to tumor uptake and volume as determined by ^18F-4D5ThioFab one day prior to 17-AAG treatment (Gill et al (2009) Jour. Med. Chem. 52(19):5816-5825). 17-AAG was administered to the treated group at day 0, while the control group animals were left untreated. PET imaging with ^18F-4D5ThioFab was performed at day 1 (fourteen hours after the administration of the last 17-AAG dose), day 5, and day 7. Coronal slices through the tumor of control animals and animals treated with 17-AAG one day before and one day after therapy are shown in FIG. 5a. […] The renal clearance of ^18F-4D5ThioFab was predominant with significant accumulation of radioactivity in the bladder and high uptake in the renal cortex (Table 3). The hepatobiliary route also contributed to tracer excretion leading to accumulation of radioactive metabolites in the large intestine and gall bladder while the retention of radioactivity in the liver was relatively low. […]
Mice were anesthetized with 3% sevoflurane and inoculated i.v. via the tail vein catheter with 0.3-0.4 mCi of ^18F-Thio4D5Fab in isotonic solution (50-100 μL). […] Body temperature was measured by a rectal probe and maintained by warm air. […]

[2] = test system: HER2; conditions: after 17-AAG, BT474 xenograft, cited from earlier work
[3] = lipophilicity (log P) measurement; format: physicochemical; conditions: pH 7.4
Procedure: After SPE treatment, method B provided [^18F] 5 with a yield of 59±4%, a radiochemical purity of 94%, and a specific activity of 5.1±1.5 Ci/μmol (determined against an HPLC standard curve of ^19F-labeled 5) in 47±1 min (n=5). The identity of [^18F] 5 was confirmed by HPLC co-elution with ^19F-labeled standard and by LC/MS analysis of the decayed product. The lipophilicity (log P) of [^18F]5 (−2.41±0.09) was measured at pH 7.4 consistent with published methods (Rodionov et al (2007) J Am Chem Soc 129:12705-12).

[4] = water solubility observation; format: physicochemical
Excerpt: 4 or [^18F]FPEG4N3 with methods B and C. […] Therefore, method C may be well suited for general radiochemical application facilitating the development of a consistent radiochemical process for the production of a variety of ^18F-labeled prosthetic groups. This may have strong implications for automation and may eliminate the need for dedicating a synthesis module to a specific prosthetic group, as is the case with [^18F]SFB.

SMILES: C=CCNC1=C2C[C@@H](C)C[C@H](OC)[C@H](O)[C@@H](C)/C=C(\C)[C@H](OC(N)=O)[C@@H](OC)/C=C\C=C(/C)C(=O)NC(=CC1=O)C2=O [Compound 17-AAG, 17-(allylamino)-17-demethoxygeldanamycin]
reduction in tumor uptake of ^18F-4D5ThioFab ([1]; day 1 after 17-AAG (three 50 mg/kg i.p. doses), compared to control group and day −1, BT474M1 xenograft): 50%
rebound of HER2 expression ([1]; day 5 after 17-AAG, ^18F-4D5ThioFab tumor uptake): 100%
return of HER2 to pretreatment levels ([2]; ^68Ga-DCHF (Smith-Jones et al)): 12 days
reduction in HER2 levels ([2]; imaged with ^68Ga-DCHF (Smith-Jones et al)): 70%

logP [3]: -2.41 ± 0.09
SMILES: O=C1C=CC(=O)N1CCOCCOCCOCCOCCOCCOCc1cn(CCOCCOCCOCCOCCOCCOCCOCC[18F])nn1 [[^18F]5]

SMILES: [N-]=[N+]=NCCOCC[18F] [[^18F]FPEG2N3]
water solubility [4]: limited water solubility
